Experimental data published in patent US8846908B2, “Tricyclic carbamate JAK inhibitors” (Rigel Pharmaceuticals, Inc., priority 2008, dated 2014).

biological target: BaF3 V617F cells (Homo sapiens, UniProt O60674, V617F, cells depend on it); assay: Proliferation assay, BaF3 V617F cells (Cell Titer-Glo); format: cell-based, mouse; conditions: proliferation for 72 hours at 37° C., stated to show ability to inhibit JAK2 activity, read-out: IC50 (the source's name)
Method: BaF3 V617F cells are maintained and plated in RPMI with 10% FBS. Plating density for these cells is 1×10^5 cells/mL.
The cells were resuspended in a corresponding medium at a required cell density (see above). 100μ of cell suspension was added to each well of a flat bottom 96 well white plate. The compound was serially diluted in DMSO from 5 mM in 3-fold dilutions, and then diluted 1:250 in the RPMI 1640 medium containing 5% FBS and pen/strep. 100 μL of resulting 2× compound solution was added per well in duplicate and the cells were allowed to proliferate for 72 hours at 37° C.
Proliferation was measured using Cell Titer-Glo. The substrate was thawed and allowed to come to room temperature. After removal of top 100 μL of medium from each well, 100 μL of the premixed Cell Titer-Glo reagent was added to each well. The plates were mixed on an orbital shaker for three minutes to induce lysis and incubated at ambient temperature for an additional five minutes to allow the signal to equilibrate. The Luminescence was read on the Wallac Plate Reader.
The results of the ability of the compounds of the invention to inhibit JAK2 activity, when tested in the above assay, are shown in the following Table 2 wherein the level of activity (i.e., the IC50) for each compound is indicated in Table 2. The compound numbers in Table 2 refers to the compounds disclosed herein as being prepared by the methods disclosed herein.

BaF3 V617F cells, sequence (O60674 whole entry V617F): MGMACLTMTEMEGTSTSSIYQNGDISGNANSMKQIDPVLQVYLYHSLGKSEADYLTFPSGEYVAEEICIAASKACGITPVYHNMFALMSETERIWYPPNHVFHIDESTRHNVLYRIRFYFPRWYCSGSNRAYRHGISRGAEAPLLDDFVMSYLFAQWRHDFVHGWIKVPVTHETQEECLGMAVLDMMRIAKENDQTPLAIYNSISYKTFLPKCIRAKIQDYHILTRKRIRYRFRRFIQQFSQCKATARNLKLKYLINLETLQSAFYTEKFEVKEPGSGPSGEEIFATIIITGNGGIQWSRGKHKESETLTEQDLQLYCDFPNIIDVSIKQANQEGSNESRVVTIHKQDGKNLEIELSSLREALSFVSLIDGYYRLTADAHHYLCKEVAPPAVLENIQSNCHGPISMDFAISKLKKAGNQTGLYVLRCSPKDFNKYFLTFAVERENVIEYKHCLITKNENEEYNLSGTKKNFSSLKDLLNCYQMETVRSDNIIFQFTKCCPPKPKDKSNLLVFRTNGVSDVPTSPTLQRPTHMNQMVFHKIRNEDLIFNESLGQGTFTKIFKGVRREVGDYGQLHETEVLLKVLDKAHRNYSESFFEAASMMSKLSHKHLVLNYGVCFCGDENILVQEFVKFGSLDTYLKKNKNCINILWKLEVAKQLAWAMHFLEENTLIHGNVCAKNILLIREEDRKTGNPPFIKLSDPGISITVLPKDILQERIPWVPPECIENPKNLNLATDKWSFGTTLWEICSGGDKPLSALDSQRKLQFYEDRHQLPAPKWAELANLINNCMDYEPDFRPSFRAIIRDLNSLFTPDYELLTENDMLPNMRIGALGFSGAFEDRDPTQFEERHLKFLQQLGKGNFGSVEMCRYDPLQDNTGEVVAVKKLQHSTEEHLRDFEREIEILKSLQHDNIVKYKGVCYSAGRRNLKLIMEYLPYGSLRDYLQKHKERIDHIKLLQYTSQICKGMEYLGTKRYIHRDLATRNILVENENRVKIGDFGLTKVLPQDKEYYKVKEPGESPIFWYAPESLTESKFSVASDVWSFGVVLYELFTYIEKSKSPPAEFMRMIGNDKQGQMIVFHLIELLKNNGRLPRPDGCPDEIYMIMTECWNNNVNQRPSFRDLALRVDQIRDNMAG

Structure (SMILES)	GI50 [nM]
O=C1N[C@@H]2c3cc(Nc4ncc(Cl)c(Nc5cccc6c5CCC6)n4)ccc3CC2O1 (stereo partly drawn) [Compound 34, 5-Chloro-N4-(indan-4-yl]-5-methyl-N2-[(3aR,8aS)-2-oxo-3,3a,8,8a-tetrahydro-2H-indeno[1,2-d]oxazol-5-yl]-2,4-pyrimidinediamine]	≥ 5000
O=C1N[C@@H]2c3cc(Nc4ncc(F)c(Nc5ccc(CCc6ccncc6)cc5)n4)ccc3C[C@@H]2O1 [Compound 29, 5-Fluoro-N2-[(3aR,8aS)-2-oxo-3,3a,8,8a-tetrahydro-2H-indeno[1,2-d]oxazol-5-yl]-N4-[4-[2-(pyridin-4-yl)ethyl]phenyl]-2,4-pyrimidinediamine]	250 to 500
Cc1cnc(Nc2ccc3c(c2)[C@H]2NC(=O)CO[C@H]2C3)nc1Nc1ccc(CNS(=O)(=O)C2CC2)cc1 [Compound 39, N4-[4-[[N-(Cyclopropylsulfonyl)amino]methyl]phenyl]-5-methyl-N2-[(4aR,9aS)-3-oxo-2,3,4,4a,9a-hexahydroindeno[2,1-b][1,4]oxazin-6-yl]-2,4-pyrimidinediamine]	250 to 500
Cc1cnc(Nc2ccc3c(c2)[C@H]2NC(=O)CO[C@H]2C3)nc1Nc1ccc2c(c1)N(C)C(=O)C(C)(C)O2 [Compound 38, 5-Methyl-N2-[(4aR,9aS)-3-oxo-2,3,4,4a,9a-hexahydroindeno[2,1-b][1,4]oxazin-6-yl]-N4-(2,2,4-trimethyl-3-oxo-benz[1,4]oxazin-6-yl)-2,4-pyrimidinediamine]	250 to 500
O=C1N[C@@H]2c3cc(Nc4ncc(Cl)c(Nc5ccc(CCNS(=O)(=O)C6CC6)cc5)n4)ccc3C[C@@H]2O1 [Compound 1, 5-Chloro-N4-[4-[2-[N-(cyclopropylsulfonyl)amino]ethyl]phenyl]-N2-[(3aR,8aS)-2-oxo-3,3a,8,8a-tetrahydro-2H-indeno[1,2-d]oxazol-5-yl]-2,4-pyrimidinediamine]	1000 to 5000

Continued, values first:

GI50 [nM]	Structure (SMILES)
250 to 500	Cc1cnc(Nc2ccc3c(c2)[C@@H]2NC(=O)O[C@@H]2C3)nc1Nc1ccc(OCc2ccccn2)cc1 [Compound 28, 5-Methyl-N2-[(3aS,8aR)-2-oxo-3,3a,8,8a-tetrahydro-2H-indeno[1,2-d]oxazol-5-yl]-N4-[4-(pyridin-2-ylmethoxy)phenyl]-2,4-pyrimidinediamine]
< 250	O=C1CO[C@H]2Cc3ccc(Nc4ncc(Cl)c(Nc5ccc(CNS(=O)(=O)C6CC6)cc5)n4)cc3[C@H]2N1 [Compound 40, 5-Chloro-N4-[4-[[N-(cyclopropylsulfonyl)amino]methyl]phenyl]-N2-[(4aR,9aS)-3-oxo-2,3,4,4a,9a-hexahydroindeno[2,1-b][1,4]oxazin-6-yl]-2,4-pyrimidinediamine]
500 to 1000	O=C1N[C@H]2c3cc(Nc4ncc(Cl)c(Nc5cccc6c5CCCC6)n4)ccc3C[C@H]2O1 [Compound 21, 5-Chloro-N2-[(3aS,8aR)-2-oxo-3,3a,8,8a-tetrahydro-2H-indeno[1,2-d]oxazol-5-yl]-N4-(5,6,7,8-tetrahydronaphthalen-1-yl)2,4-pyrimidinediamine]
1000 to 5000	O=C1N[C@H]2c3cc(Nc4ncc(Cl)c(Nc5ccc(CNS(=O)(=O)C6CC6)cc5)n4)ccc3C[C@H]2O1 [Compound 16, 5-Chloro-N4-[4-[[N-(cyclopropylsulfonyl)amino]methyl]phenyl]-N2-[(3aS,8aR)-2-oxo-3,3a,8,8a-tetrahydro-2H-indeno[1,2-d]oxazol-5-yl]-2,4-pyrimidinediamine]
250 to 500	Cc1cnc(Nc2ccc3c(c2)[C@H]2NC(=O)O[C@H]2C3)nc1Nc1ccc(OCc2cccnc2)cc1 [Compound 31, 5-Methyl-N2-[(3aR,8aS)-2-oxo-3,3a,8,8a-tetrahydro-2H-indeno[1,2-d]oxazol-5-yl]-N4-[4-(pyridin-3-ylmethoxy)phenyl]-2,4-pyrimidinediamine]
≥ 5000	O=C1N[C@H]2c3cc(Nc4ncc(Cl)c(Nc5cccc6c5OC(F)(F)O6)n4)ccc3C[C@H]2O1 [Compound 25, 5-Chloro-N4-(2,2-difluoro-1,3-benzodioxol-4-yl)-N2-[(3aS,8aR)-2-oxo-3,3a,8,8a-tetrahydro-2H-indeno[1,2-d]oxazol-5-yl]-2,4-pyrimidinediamine]
< 250	Cc1cnc(Nc2ccc3c(c2)[C@H]2NC(=O)OC2C3)nc1Nc1ccc2c(n1)N(C)C(=O)C(C)(C)O2 (stereo partly drawn) [Compound 5, 5-Methyl-N2-[(3aR,8aS)-2-oxo-3,3a,8,8a-tetrahydro-2H-indeno[1,2-d]oxazol-5-yl]-N4-(2,2,4-trimethyl-3-oxo-5-pyrido[1,4]oxazin-6-yl)-2,4-pyrimidinediamine]
1000 to 5000	Cc1cc(CNS(=O)(=O)C2CC2)ccc1Nc1nc(Nc2ccc3c(c2)[C@@H]2NC(=O)O[C@@H]2C3)ncc1Cl [Compound 17, 5-Chloro-N4-[4-[[N-(cyclopropylsulfonyl)amino]methyl]-2-methylphenyl]-N2-[(3aS,8aR)-2-oxo-3,3a,8,8a-tetrahydro-2H-indeno[1,2-d]oxazol-5-yl]-2,4-pyrimidinediamine]
